Data: patent US20230079389A1, “COMPOSITION FOR USE IN PREVENTION OR TREATMENT OF OESOPHAGEAL DISEASES LINKED TO EPITHELIAL BARRIER DEFECTS” (THELIAL B.V., priority 2020, published 2023)
Like-named read-outs stand apart in the source and are kept apart here.

What was measured:
Par6 = assay: theLiTE assay: distribution of GFP-tagged Par6 in live follicular epithelia; settings: for Par6 modulation (distribution of Par6 protein): live follicular epithelia of Drosophila egg chamber, Par6-GFP
Description: The present inventors used a unique approach in order to identify compounds which reinforce the TJ system via the control of TJ initiation. Par6 was selected as the biological target; it acts as a regulator of tight junction initiation. Par6 has a polar distribution, with a defined zone of high abundance at one end of the cell. This Par6 distribution is key to the biological function, not just the absolute Par6 protein level.
Standard tools for RNA and protein level measurement are not adequate to discover compounds which target Par6 and the present inventors devised and implemented an assay where the distribution of Par6 in living tissues can be monitored: Thelial Live Targeted Epithelia (theLiTE™; U.S. Pat. No. 9,416,391).
The technology of theLITE™ allows monitoring the distribution of Par6—an intracellular protein that controls tight junction assembly. The assay was performed in live follicular epithelia of the egg chamber of the fruit fly Drosophila. Par6 was tagged with a green fluorescence protein (GFP) and its distribution within the cell was monitored by the GFP signal. […] This protein distribution is key to the biological function, not just the absolute protein level.
In theLiTE, the present inventors tested whether compounds modulate the distribution of Par6 protein in live follicular epithelia. In theLiTE more than 20 live egg chambers were exposed to test each compound and monitored for Par6 distribution after a set incubation time; any positive compounds were tested in three separate runs of experiments and over a broad range of concentrations. The full method is disclosed in the US patent document. […] The positive control in FIG. 2, indicated with a “+” sign, is Antimycin A, at a concentration of 40 micromolar. The negative control, indicated with a “−” sign is the solvent medium (Insect cell culture medium plus 10% dimethyl sulfoxide).

[1] = system: subjects suffering from GERD; assay: 6-weeks treatment of GERD subjects, synergy between active compounds; type: in vivo, human; settings: for subjects reporting reduction in severity of GERD, as well as reduced usage of PPIs: 500 mg twice daily oral, 14 patients per group; for effect on GERD (in words): twice daily oral
Procedure: In a 6-weeks treatment, 50 subjects suffering from GERD receive a twice daily oral dose (1 hour before the morning and the evening meal) with either • Quercetin (500 mg); • Myricetin (500 mg); • Quercetin (500 mg) and Myricetin (500 mg); • Quercetin (500 mg) and Genistein (300 mg); • Myricetin (500 mg) and Berberine (750 mg).

[2] = system: patients with non-erosive Gastro esophageal Reflux Disease (GERD); settings: cited from earlier work

O=c1c(-c2ccc(O)cc2)coc2cc(O)cc(O)c12 [Genistein, 5,7-dihydro-3-(4-hydroxyphenyl)chromen-4-one]
Par6 modulation (distribution of Par6 protein) (Par6): do not modulate Par6

COc1ccc2cc3[n+](cc2c1OC)CCc1cc2c(cc1-3)OCO2 [Berberine, 5,6-dihydro-9,10-dimehtoxybenzo[g]-1,3-benzodioxolo[5,6-a]quinolizinium]
Par6 modulation (distribution of Par6 protein) (Par6): do not modulate Par6

Antimycin A [reference compound]
Par6 modulation (distribution of Par6 protein) (Par6): most potent compound in the test
toxicity (Par6; screen of over 2000 compounds): toxic

O=c1c(O)c(-c2cc(O)c(O)c(O)c2)oc2cc(O)cc(O)c12 [Myricetin, 3,5,7-Trihydroxy-2-(3,4,5-trihydroxyphenyl)-4H-1-benzopyran-4-one]
subjects reporting reduction in severity of GERD, as well as reduced usage of PPIs [1]: 10 subjects report reduction in severity of GERD,
effect on GERD (in words) [1]: reduction of GERD severity
Par6 modulation (distribution of Par6 protein) (Par6): potent Par6 modulation
toxicity (Par6; screen of over 2000 compounds): low toxicity

O=c1c(O)c(-c2ccc(O)c(O)c2)oc2cc(O)cc(O)c12 [Quercetin, 2-(3,4-dihydroxyphenyl)-3,5,7-trihydroxychromen-4-one]
subjects reporting reduction in severity of GERD, as well as reduced usage of PPIs [1]: 12 subjects report reduction in severity of GERD,
effect on GERD (in words) [1]: reduction of GERD severity
toxicity (Par6): low toxicity
Par6 modulation (distribution of Par6 protein) (Par6): potent Par6 modulation
esophageal epithelial barrier function, resistance to injury upon contact with hydrochloric acid ([2]; 500 mg orally twice daily (tablet) for 6 weeks, endoscopic biopsies before and after): increases esophageal epithelial barrier function
heartburn symptom improvement ([2]; 14 GERD sufferers, twice 500 mg daily, 6-week period): no report of consistent effects
